Source: ChEMBL document CHEMBL1201862, “PubChem BioAssay data set” (2004)
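Dose response: 5 concentrations. Exposure: 48 h. Format: 96-well plates. Endpoint: linear interpolation; highest concentration if not reached. GI50 is the concentration that inhibits growth by half.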 Activity calls are given as the source filed them. No stated cut-off is given here; in the data, active = GI50 up to about 1.1 µM and inactive = higher.

Legend:
Test in all cases: growth of human tumour cells (NCI), 48 h
OVCAR-4 = system: OVCAR-4
SK-MEL-28 = system: SK-MEL-28
K562 = system: K562
SW-620 = system: SW-620
SK-MEL-2 = system: SK-MEL-2
M14 = system: M14
UO-31 = system: UO-31
HT-29 = system: HT-29
U-251 = system: U-251
SN12C = system: SN12C
SK-OV-3 = system: SK-OV-3
A498 = system: A498
PC-3 = system: PC-3
RPMI-8226 = system: RPMI-8226
SF-539 = system: SF-539
SF-268 = system: SF-268
MCF7 = system: MCF7
NCI-H23 = system: NCI-H23
HCT-116 = system: HCT-116
HOP-18 = system: HOP-18

Measured: GI50

Cc1ccc(C2=Nc3ccccc3SC(c3cccc([N+](=O)[O-])c3)C2)cc1 (stereo unspecified)
inactive: OVCAR-4 27.4 µM | SK-MEL-28 > 100 µM | K562 6.56 µM | SW-620 3.18 µM | SK-MEL-2 34 µM | M14 23.9 µM | UO-31 5.4 µM | HT-29 5.96 µM | U-251 4.59 µM | SN12C 34.1 µM | SK-OV-3 31.1 µM | A498 > 100 µM | PC-3 10.2 µM | RPMI-8226 2.38 µM | SF-539 3.8 µM | SF-268 16.2 µM | MCF7 4.08 µM | NCI-H23 11.8 µM | HCT-116 3.6 µM

O=C(c1ccccc1)c1cn(/N=C\c2ccccc2)c(=O)nc1-c1ccccc1
inactive: OVCAR-4 > 100 µM | SK-MEL-28 > 100 µM | K562 > 100 µM | SW-620 > 100 µM | SK-MEL-2 > 100 µM | M14 > 100 µM | UO-31 > 100 µM | HT-29 > 100 µM | U-251 > 100 µM | SN12C > 100 µM | SK-OV-3 > 100 µM | A498 > 100 µM | SF-539 > 100 µM | HOP-18 > 100 µM | SF-268 > 100 µM | NCI-H23 > 100 µM | HCT-116 > 100 µM

CCO/C=N/C1=C(C#N)C(c2ccc(Cl)cc2)c2c(-c3ccccc3)nn(-c3ccccc3)c2O1 (stereo unspecified)
inactive: OVCAR-4 11.4 µM | SK-MEL-28 11.7 µM | K562 7.78 µM | SW-620 12.9 µM | SK-MEL-2 11.7 µM | M14 4.58 µM | UO-31 11.6 µM | HT-29 7.53 µM | U-251 8.55 µM | SN12C 12.2 µM | SK-OV-3 14.3 µM | A498 13.4 µM | PC-3 4.28 µM | RPMI-8226 6.53 µM | SF-539 6.14 µM | SF-268 7.87 µM | MCF7 3.81 µM | NCI-H23 5.15 µM | HCT-116 7.5 µM

CCCCCC(=O)OC[n+]1ccc(-c2c(COC(=O)NC(C)C)c(COC(=O)NC(C)C)c3n2CCC3)cc1
inactive: OVCAR-4 > 100 µM | SK-MEL-28 > 100 µM | K562 > 100 µM | SW-620 > 100 µM | SK-MEL-2 > 100 µM | M14 > 100 µM | UO-31 > 100 µM | HT-29 > 100 µM | U-251 > 100 µM | SN12C > 100 µM | SK-OV-3 > 100 µM | A498 > 100 µM | PC-3 > 100 µM | RPMI-8226 > 100 µM | SF-539 > 100 µM | SF-268 > 94.6 µM | MCF7 77.1 µM | NCI-H23 > 100 µM | HCT-116 > 100 µM

CC(C)(C)[C@H]1CCC2(OCCO2)[C@](O)(CCCO)C1
inactive: OVCAR-4 > 100 µM | SK-MEL-28 > 100 µM | K562 > 100 µM | SW-620 > 100 µM | SK-MEL-2 > 100 µM | M14 > 100 µM | UO-31 > 100 µM | HT-29 > 100 µM | U-251 > 100 µM | SN12C > 100 µM | SK-OV-3 > 100 µM | A498 > 100 µM | PC-3 > 100 µM | RPMI-8226 > 100 µM | SF-539 > 100 µM | SF-268 > 100 µM | MCF7 > 100 µM | NCI-H23 > 100 µM | HCT-116 > 100 µM

O=C1OC(=O)C2C1C(c1ccccc1[N+](=O)[O-])C=C(c1ccco1)N2c1ccncc1 (stereo unspecified)
inactive: OVCAR-4 15.2 µM | SK-MEL-28 8.34 µM | K562 1.35 µM | SW-620 6.15 µM | SK-MEL-2 13.9 µM | M14 6.84 µM | UO-31 6.01 µM | HT-29 2.57 µM | U-251 3.94 µM | SN12C 8.95 µM | SK-OV-3 17.6 µM | A498 12.2 µM | PC-3 13.3 µM | RPMI-8226 1.87 µM | SF-539 4.65 µM | SF-268 10.3 µM | MCF7 2.1 µM | NCI-H23 11.3 µM | HCT-116 1.83 µM

CCCCCCCCCCCCCCC(C)CCC(=O)O (stereo unspecified)
inactive: OVCAR-4 > 100 µM | SK-MEL-28 > 100 µM | SW-620 > 100 µM | SK-MEL-2 60 µM | HT-29 34.5 µM | U-251 52.5 µM | SN12C > 100 µM | A498 > 100 µM | SF-539 48.9 µM | HOP-18 > 100 µM | SF-268 > 100 µM | NCI-H23 > 100 µM | HCT-116 36.8 µM

CCOC(=O)C12CC(C)=C(C)CC1CCCc1ccccc12 (stereo unspecified)
inactive: OVCAR-4 32.5 µM | SK-MEL-28 30.8 µM | K562 21.2 µM | SW-620 20.8 µM | SK-MEL-2 15.5 µM | M14 30.3 µM | UO-31 47 µM | HT-29 16.9 µM | U-251 18.4 µM | SN12C 23.4 µM | SK-OV-3 32 µM | A498 23 µM | PC-3 18.1 µM | RPMI-8226 12.5 µM | SF-539 28.2 µM | SF-268 38.9 µM | MCF7 17 µM | NCI-H23 28.4 µM | HCT-116 14.7 µM

Nn1c(Nc2ccc(S(N)(=O)=O)cc2)nnc(/C=C/c2c(O)ccc3ccccc23)c1=O
inactive: OVCAR-4 15.3 µM | SK-MEL-28 19.3 µM | K562 17 µM | SW-620 16.4 µM | SK-MEL-2 39.8 µM | M14 26.4 µM | UO-31 22.9 µM | HT-29 19.9 µM | U-251 39.9 µM | SN12C 11.6 µM | SK-OV-3 24.2 µM | A498 26.7 µM | PC-3 47.2 µM | RPMI-8226 10.7 µM | SF-539 35.7 µM | SF-268 42.1 µM | MCF7 17.5 µM | NCI-H23 4.07 µM | HCT-116 16.3 µM

COc1ccc(OC)c(CNc2ccc(O)c(C(=O)NCCc3ccc(F)cc3)c2)c1
inactive: OVCAR-4 9.95 µM | SK-MEL-28 3.3 µM | K562 3.74 µM | SW-620 15.7 µM | SK-MEL-2 8.15 µM | M14 10.4 µM | UO-31 7.18 µM | HT-29 18 µM | U-251 11.9 µM | SN12C 19.5 µM | SK-OV-3 17.3 µM | A498 16.4 µM | PC-3 10.1 µM | RPMI-8226 2.83 µM | SF-539 15.8 µM | SF-268 11.6 µM | MCF7 10.8 µM | NCI-H23 17.1 µM | HCT-116 12.1 µM

CC(NC(NC(C)C12CC3CC(CC(C3)C1)C2)=C(C(Cl)=C(Cl)Cl)[N+](=O)[O-])C12CC3CC(CC(C3)C1)C2 (stereo unspecified)
inactive: OVCAR-4 8.3 µM | SK-MEL-28 26.4 µM | K562 9.08 µM | SW-620 17.6 µM | SK-MEL-2 15 µM | M14 16.4 µM | UO-31 31.9 µM | HT-29 4.62 µM | U-251 3.38 µM | SN12C 7.59 µM | SK-OV-3 71.1 µM | A498 36.1 µM | PC-3 8.3 µM | RPMI-8226 > 36.7 µM | SF-539 20.9 µM | SF-268 21.8 µM | MCF7 8.36 µM | NCI-H23 7.96 µM | HCT-116 9.04 µM
